Assay results taken from paper doi:10.1101/2024.08.19.608619, “Discovery of potent SARS-CoV-2 nsp3 macrodomain inhibitors uncovers lack of translation to cellular antiviral response” (bioRxiv, 2024).
“And” between values parts separate entries of the source, which are not always exact repeats. Equal values may be shown once.

How the values were obtained:
[1] = Hepatic microsomal stability, MLM; format: in vitro ADME; details: In vitro mouse liver microsomal stability
KOR receptor = molecular target: T1, KOR receptor (Homo sapiens, UniProt P41145); experiment: Eurofins CEREP panel, KOR; format: binding; details: kappa (h) (KOP) (agonist radioligand); test compound concentration 10 uM
T1 construct: purchased Eurofins Cerep (SafetyScreen44), recognised from the panel format

5-HT2A (h) = molecular target: T2, 5-HT2A (h) (Homo sapiens, UniProt P28223); experiment: In vitro CEREP profiling, 5-HT2A (h) (agonist radioligand); format: binding; details: test compound concentration 10 uM
T2 construct: purchased Eurofins Cerep (SafetyScreen44), recognised from the panel format
From the text: (§1) Supplement media-1.zip/Safety_Panel_Profile.csv, table | column: perc_inhibition

Vero E6/TMPRSS2 = Vero E6/TMPRSS2 cytotoxicity with P-gp inhibitor; format: cell-based
From the text: Supplement media-1.zip/Cytotoxicity.csv, table | column: cc10; cc50; perc_min_measured; perc_max_measured

MAO-A = molecular target: T3, MAO-A (Rattus norvegicus, UniProt P21396); experiment: In vitro CEREP profiling, MAO-A (antagonist radioligand); format: binding; details: test compound concentration 10 uM
T3 construct: purchased Eurofins Cerep (SafetyScreen44), recognised from the panel format
T3 sequence (P21396 1-526): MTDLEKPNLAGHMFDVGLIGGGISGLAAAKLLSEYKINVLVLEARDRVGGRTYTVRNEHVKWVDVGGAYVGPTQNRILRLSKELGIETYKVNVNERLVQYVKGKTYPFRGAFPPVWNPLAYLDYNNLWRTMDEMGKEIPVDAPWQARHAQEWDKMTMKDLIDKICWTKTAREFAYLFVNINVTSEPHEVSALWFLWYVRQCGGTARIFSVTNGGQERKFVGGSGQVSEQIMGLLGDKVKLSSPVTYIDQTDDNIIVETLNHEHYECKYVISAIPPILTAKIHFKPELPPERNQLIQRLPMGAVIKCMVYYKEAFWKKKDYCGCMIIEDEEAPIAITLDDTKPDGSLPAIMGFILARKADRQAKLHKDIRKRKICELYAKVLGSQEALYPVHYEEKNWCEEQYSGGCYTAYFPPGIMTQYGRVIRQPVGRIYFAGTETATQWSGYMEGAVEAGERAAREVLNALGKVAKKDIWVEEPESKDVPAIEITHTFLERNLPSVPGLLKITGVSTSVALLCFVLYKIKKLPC
From the text: as §1

BZD (central) = experiment: In vitro CEREP profiling, BZD (central) (agonist radioligand); format: binding; details: test compound 10 uM
From the text: as §1

AR(h) = experiment: In vitro CEREP profiling, AR(h) (agonist radioligand); format: binding, human; details: test compound concentration 10 uM
From the text: as §1

Lck kinase (h) = molecular target: T4, Lck kinase (h) (Homo sapiens, UniProt P06239); experiment: In vitro CEREP profiling, Lck kinase (h); format: biochemical; details: test compound concentration 10 uM; Enzyme and Cell-based assays
T4 construct: purchased Eurofins Cerep (SafetyScreen44), recognised from the panel format
From the text: as §1

CB2 (h) = molecular target: T5, CB2 (h) (Homo sapiens, UniProt P34972); experiment: In vitro CEREP profiling, CB2 (h) (agonist radioligand); format: binding; details: test compound 10 uM
T5 construct: purchased Eurofins Cerep (SafetyScreen44), recognised from the panel format
From the text: as §1

acetylcholinesterase (h) = molecular target: T6, acetylcholinesterase (h) (Homo sapiens, UniProt P22303); experiment: In vitro CEREP profiling, acetylcholinesterase (h); format: biochemical; details: test compound concentration 10 uM; Enzyme and Cell-based assays
T6 construct: purchased Eurofins Cerep (SafetyScreen44), recognised from the panel format
From the text: as §1

delta (DOP) (h) = molecular target: T7, delta (DOP) (h) (Homo sapiens, UniProt P41143); experiment: In vitro CEREP profiling, delta (DOP) (h) (agonist radioligand); format: binding; details: test compound concentration 10 uM
T7 construct: purchased Eurofins Cerep (SafetyScreen44), recognised from the panel format
From the text: as §1

CCK1 (CCKA) (h) = molecular target: T8, CCK1 (CCKA) (h) (Homo sapiens, UniProt P32238); experiment: In vitro CEREP profiling, CCK1 (CCKA) (h) (agonist radioligand); format: binding; details: test compound 10 uM
T8 construct: purchased Eurofins Cerep (SafetyScreen44), recognised from the panel format
T8 sequence (P32238 1-428): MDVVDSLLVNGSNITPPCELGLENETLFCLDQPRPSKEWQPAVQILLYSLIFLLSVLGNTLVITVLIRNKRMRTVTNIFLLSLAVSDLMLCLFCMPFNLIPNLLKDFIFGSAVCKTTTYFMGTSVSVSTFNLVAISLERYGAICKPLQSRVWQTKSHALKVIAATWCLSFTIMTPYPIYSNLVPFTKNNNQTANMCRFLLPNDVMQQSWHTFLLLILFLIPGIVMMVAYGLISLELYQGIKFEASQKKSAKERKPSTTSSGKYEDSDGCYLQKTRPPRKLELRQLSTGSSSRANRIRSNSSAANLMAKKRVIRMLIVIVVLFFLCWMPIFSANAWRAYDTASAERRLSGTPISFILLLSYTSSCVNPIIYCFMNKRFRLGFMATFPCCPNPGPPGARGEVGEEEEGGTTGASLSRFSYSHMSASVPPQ
From the text: as §1

Na+ channel (site 2) = experiment: In vitro CEREP profiling, Na+ channel (site 2) (antagonist radioligand); format: binding; details: test compound concentration 10 uM
From the text: as §1

ETA (h) = molecular target: T9, ETA (h) (Homo sapiens, UniProt P25101); experiment: In vitro CEREP profiling, ETA (h) (agonist radioligand); format: binding; details: test compound 10 uM
T9 construct: purchased Eurofins Cerep (SafetyScreen44), recognised from the panel format
T9 sequence (P25101 21-427): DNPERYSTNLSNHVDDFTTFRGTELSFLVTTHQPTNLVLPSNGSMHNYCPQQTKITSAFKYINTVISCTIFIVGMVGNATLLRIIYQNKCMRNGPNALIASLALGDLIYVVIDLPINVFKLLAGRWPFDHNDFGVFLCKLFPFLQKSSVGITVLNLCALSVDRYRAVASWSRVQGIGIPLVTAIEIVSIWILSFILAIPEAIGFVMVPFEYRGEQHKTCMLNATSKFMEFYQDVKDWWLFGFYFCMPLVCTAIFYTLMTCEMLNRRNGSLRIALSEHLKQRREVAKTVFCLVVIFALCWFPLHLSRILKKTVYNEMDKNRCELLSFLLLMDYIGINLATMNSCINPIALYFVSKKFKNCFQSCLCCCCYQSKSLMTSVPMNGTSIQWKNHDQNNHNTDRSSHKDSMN
From the text: as §1

dopamine transporter (h) = molecular target: T10, dopamine transporter (h) (Homo sapiens, UniProt Q01959); experiment: In vitro CEREP profiling, dopamine transporter (h) (antagonist radioligand); format: binding; details: test compound concentration 10 uM
T10 construct: purchased Eurofins Cerep (SafetyScreen44), recognised from the panel format
From the text: as §1

MERS-CoV = experiment: microbe, parasite or virus in culture; format: cell-based; details: Vero E6/TMPRSS2 MERS-CoV antiviral effect with P-gp inhibitor

T5 sequence (P34972 whole entry): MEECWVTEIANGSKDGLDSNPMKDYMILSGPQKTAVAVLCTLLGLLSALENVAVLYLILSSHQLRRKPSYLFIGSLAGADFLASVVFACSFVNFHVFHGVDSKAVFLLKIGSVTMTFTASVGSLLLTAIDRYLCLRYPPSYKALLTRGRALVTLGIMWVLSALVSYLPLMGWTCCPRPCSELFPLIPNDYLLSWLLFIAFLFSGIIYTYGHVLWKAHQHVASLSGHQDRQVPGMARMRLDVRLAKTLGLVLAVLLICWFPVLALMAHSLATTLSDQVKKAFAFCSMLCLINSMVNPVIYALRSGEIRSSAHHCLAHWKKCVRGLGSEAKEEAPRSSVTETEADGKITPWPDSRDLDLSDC
T7 sequence (P41143 whole entry): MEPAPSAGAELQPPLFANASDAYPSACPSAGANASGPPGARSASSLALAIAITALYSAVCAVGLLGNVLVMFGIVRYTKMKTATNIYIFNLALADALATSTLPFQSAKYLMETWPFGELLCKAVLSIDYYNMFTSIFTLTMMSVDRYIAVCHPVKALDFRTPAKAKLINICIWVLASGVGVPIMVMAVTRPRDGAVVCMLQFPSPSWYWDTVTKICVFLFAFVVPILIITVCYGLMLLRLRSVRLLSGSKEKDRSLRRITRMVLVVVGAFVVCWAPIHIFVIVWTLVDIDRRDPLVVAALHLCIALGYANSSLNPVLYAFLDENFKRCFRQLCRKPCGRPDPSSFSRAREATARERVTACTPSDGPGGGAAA
T1 sequence (P41145 whole entry): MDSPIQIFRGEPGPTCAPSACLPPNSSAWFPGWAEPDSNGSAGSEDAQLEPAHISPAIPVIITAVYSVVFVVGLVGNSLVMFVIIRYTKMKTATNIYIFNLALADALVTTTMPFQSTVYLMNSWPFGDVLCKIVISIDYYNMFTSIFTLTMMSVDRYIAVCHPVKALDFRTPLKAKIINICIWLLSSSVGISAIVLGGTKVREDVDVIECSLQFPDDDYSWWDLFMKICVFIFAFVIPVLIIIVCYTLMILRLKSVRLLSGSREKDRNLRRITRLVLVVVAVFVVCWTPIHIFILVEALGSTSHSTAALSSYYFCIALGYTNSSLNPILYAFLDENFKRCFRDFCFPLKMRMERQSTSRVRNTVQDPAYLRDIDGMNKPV
T6 sequence (P22303 32-614): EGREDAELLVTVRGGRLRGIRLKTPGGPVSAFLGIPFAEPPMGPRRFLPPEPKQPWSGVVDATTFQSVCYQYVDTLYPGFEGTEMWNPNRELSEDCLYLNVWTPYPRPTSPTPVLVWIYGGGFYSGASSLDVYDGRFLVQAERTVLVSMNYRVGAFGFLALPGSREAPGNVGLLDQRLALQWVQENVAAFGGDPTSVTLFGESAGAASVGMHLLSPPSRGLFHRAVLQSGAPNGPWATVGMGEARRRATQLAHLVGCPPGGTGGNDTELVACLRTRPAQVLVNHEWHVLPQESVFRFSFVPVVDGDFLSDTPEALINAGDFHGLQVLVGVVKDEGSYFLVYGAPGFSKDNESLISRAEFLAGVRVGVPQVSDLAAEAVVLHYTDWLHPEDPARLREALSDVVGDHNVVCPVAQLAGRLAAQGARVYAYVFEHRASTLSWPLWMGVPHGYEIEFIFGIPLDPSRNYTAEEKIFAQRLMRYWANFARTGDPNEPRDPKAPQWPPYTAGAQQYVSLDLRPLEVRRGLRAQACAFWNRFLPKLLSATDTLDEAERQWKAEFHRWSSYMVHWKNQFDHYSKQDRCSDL
T10 sequence (Q01959 whole entry): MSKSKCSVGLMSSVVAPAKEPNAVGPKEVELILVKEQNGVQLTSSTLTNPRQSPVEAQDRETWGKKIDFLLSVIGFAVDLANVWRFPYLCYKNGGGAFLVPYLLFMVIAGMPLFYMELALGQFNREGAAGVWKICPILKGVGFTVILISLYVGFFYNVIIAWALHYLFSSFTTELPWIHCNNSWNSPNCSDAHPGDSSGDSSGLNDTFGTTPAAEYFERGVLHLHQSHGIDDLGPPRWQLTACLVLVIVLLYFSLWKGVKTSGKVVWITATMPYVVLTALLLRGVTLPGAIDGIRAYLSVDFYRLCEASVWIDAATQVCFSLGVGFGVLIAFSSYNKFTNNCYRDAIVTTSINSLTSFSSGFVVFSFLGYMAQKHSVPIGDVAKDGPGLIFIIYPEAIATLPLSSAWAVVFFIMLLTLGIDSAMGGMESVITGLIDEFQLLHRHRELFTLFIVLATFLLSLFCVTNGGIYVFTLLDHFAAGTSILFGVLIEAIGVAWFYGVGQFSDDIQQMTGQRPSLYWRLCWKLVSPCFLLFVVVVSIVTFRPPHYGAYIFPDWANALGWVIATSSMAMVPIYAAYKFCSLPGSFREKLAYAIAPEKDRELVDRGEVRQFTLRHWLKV
T4 sequence (P06239 whole entry): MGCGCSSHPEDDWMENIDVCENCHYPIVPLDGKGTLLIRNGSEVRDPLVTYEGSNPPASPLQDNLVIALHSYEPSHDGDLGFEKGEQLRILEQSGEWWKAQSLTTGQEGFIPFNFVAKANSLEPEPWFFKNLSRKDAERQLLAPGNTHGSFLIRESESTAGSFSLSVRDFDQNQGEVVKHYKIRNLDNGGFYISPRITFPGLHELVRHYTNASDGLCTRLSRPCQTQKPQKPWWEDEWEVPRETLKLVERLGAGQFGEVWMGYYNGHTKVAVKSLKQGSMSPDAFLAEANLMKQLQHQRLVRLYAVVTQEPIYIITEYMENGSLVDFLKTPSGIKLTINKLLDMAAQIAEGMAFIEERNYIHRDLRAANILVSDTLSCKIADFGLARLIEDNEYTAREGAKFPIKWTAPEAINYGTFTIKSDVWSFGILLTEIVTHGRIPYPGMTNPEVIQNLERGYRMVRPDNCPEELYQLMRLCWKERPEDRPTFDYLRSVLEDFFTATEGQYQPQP
T2 sequence (P28223 whole entry): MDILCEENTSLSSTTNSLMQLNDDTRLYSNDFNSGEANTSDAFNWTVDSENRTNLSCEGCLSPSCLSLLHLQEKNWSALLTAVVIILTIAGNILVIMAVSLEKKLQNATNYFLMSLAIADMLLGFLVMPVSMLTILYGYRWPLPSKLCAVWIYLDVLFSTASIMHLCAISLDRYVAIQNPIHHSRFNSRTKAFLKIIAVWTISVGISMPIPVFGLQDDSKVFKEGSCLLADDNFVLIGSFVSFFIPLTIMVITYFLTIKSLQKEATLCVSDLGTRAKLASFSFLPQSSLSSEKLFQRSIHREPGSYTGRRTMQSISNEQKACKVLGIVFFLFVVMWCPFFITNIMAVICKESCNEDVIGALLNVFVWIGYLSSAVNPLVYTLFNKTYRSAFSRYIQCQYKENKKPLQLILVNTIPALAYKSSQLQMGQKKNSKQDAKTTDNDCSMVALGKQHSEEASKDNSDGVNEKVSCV

## C[C@H](C(=O)O)[C@@H](NC(=O)c1ncnc2[nH]ccc12)c1ccc(Br)cc1 [ASAP-0014722]
[1]
  clint: 4.0 µL/min/mg
  perc_remaining: 111.226%
  t_half: 379.672 min
[1]; no cofactor
  perc_remaining_no_cofactor: 100.245%
KOR receptor
  perc_inhibition (% inhibition of the binding of a ligand specific for each target): 2%
5-HT2A (h)
  perc_inhibition (% inhibition of the binding of a ligand specific for each target): 1%
Vero E6/TMPRSS2
  CC50: > 5 µM
  cc10: > 5.0 µM
Vero E6/TMPRSS2; highest measured response of the dose series
  perc_max_measured: 112.113%
Vero E6/TMPRSS2; lowest measured response of the dose series
  perc_min_measured: 82.421%
MAO-A
  perc_inhibition (% inhibition of the binding of a ligand specific for each target): -1%
BZD (central)
  perc_inhibition (% inhibition of the binding of a ligand specific for each target): -4%
AR(h)
  perc_inhibition (% inhibition of the binding of a ligand specific for each target): 12%
Lck kinase (h)
  perc_inhibition: % inhibition of control enzyme activity, Lck kinase (h): 4%
CB2 (h)
  perc_inhibition (% inhibition of the binding of a ligand specific for each target): -5%
Acetylcholinesterase (h)
  perc_inhibition: % inhibition of control enzyme activity, acetylcholinesterase (h): 12%
Delta (DOP) (h)
  perc_inhibition (% inhibition of the binding of a ligand specific for each target): -24%
CCK1 (CCKA) (h)
  perc_inhibition (% inhibition of the binding of a ligand specific for each target): 6%
Na+ channel (site 2)
  perc_inhibition (% inhibition of the binding of a ligand specific for each target): 6%
ETA (h)
  perc_inhibition (% inhibition of the binding of a ligand specific for each target): -2%
Dopamine transporter (h)
  perc_inhibition (% inhibition of the binding of a ligand specific for each target): 4%
MERS-CoV; maximum measured response of dose series
  perc_max_measured: 106.305% and 132.117%
MERS-CoV; minimum measured response of dose series
  perc_min_measured: 63.318% and 92.538%
MERS-CoV; read-out: ec50
  EC50: > 5 µM
MERS-CoV; read-out: ec90
  EC90: > 5 µM
